{
  "source": "patent US20050020542A1",
  "about": "“Method of modulating sodium ion absorption in epithelial cells” (priority 2001, published 2005)",
  "system": "CFHNE monolayers",
  "experiment": "Monolayer resistance / tight junction integrity in Ussing chambers (toxicity)",
  "format": "cell-based, human",
  "protocol": "3. In addition, delayed toxic effects could result in long-term damage of the monolayers that would not become apparent for several hours. Therefore, it is of interest to note whether the resistance or conductance was affected during this period. A reduction in resistance in monolayers treated with compound could indicate weakened tight junctions.\n[…] […] As a control, the effect of pretreatment with phosphate-propionoxymethyl ester (26.6 μM) was tested using the same protocol.",
  "note": "Entries after “also recorded” stand apart in the source; their conditions may differ.",
  "data": [
    {"smiles": "CCCCCCCCOC1C(OC(=O)CCC)C(OP(=O)(OCOC(=O)CC)OCOC(=O)CC)C(OP(=O)(OCOC(=O)CC)OCOC(=O)CC)C(OP(=O)(OCOC(=O)CC)OCOC(=O)CC)C1OP(=O)(OCOC(=O)CC)OCOC(=O)CC", "note": "(stereo not shown) [INO-E2, 2-O-butyryl-1-O-octyl-myo-inositol 3,4,5,6-tetrakisphosphate octakis (propionoxymethyl) ester]", "values": [
      {"measurement": "toxicity on repeated exposure (deterioration of tight junctions)", "setting": "1-2.5 μM repeatedly over 96 hours", "value": "no indication of toxicity; also recorded: No evidence of toxicity"},
      {"measurement": "toxic effects as evaluated by tight junction integrity", "setting": "2 hr exposure 24 hrs before, up to highest concentration 200 μM", "value": "no apparent toxic effects"},
      {"measurement": "integrity of the monolayers at high concentration", "setting": "concentrations in 100 fold excess of the acute EC50", "value": "no decrement in the integrity of the monolayers"},
      {"measurement": "monolayer resistance", "setting": "measured shortly after mounting, highest concentration 200 μM", "value": "increased"}
    ]}
  ]
}
